Test results from patent publication US20090156646A1, “PYRIDYLPHENOL COMPOUND AND USE THEREOF” (TAKEDA PHARMACEUTICAL COMPANY LIMITED, priority 2005, published 2009).

Tests used:
[1] = biological target: T1, human metastin receptor hOT7T175 (Homo sapiens, UniProt Q969F8, L364H); assay: binding inhibiting activity: 125I-metastin (40-54) binding to cell membrane fraction of h175 KB34 cells; details: room temperature 60 minutes, read-out: binding inhibiting activity, represented by the IC50 value
T1 construct: encoding the entire length of human metastin receptor hOT7T175; expressed in transfected cells; host or cells: CHO/dhFr- cells (ATCC #CRL-9096) stably transfected with pAKKO-hOT7T175; clone h175-16 was used as whole cells for FLIPR
T1 sequence (Q969F8 whole entry L364H): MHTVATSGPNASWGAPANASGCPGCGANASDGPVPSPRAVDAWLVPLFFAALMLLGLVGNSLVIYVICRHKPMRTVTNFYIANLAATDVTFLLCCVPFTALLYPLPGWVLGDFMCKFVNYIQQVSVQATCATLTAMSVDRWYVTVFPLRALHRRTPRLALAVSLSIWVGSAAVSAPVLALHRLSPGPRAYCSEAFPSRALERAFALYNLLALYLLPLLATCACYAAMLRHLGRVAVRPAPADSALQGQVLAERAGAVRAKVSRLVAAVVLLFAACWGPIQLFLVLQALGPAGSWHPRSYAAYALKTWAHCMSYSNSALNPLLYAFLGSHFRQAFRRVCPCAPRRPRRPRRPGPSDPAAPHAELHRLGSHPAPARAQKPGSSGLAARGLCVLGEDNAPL
Outline: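 The assay buffer (pH 7.4 Tris with magnesium acetate, EGTA and a protease-inhibitor cocktail) was used either plain or supplemented with 1 mg/ml BSA. The radioligand was 125I-labelled human metastin (40-54). The receptor source was a 250-fold diluted membrane fraction of the stable CHO/dhfr− line h175 KB34.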

| melting point | IC50 [1] [µM] | Structure (SMILES) |
| --- | --- | --- |
| 205 to 207 °C | ≤ 10 | CN(C)[C@@H]1CCCC[C@@H]1C(=O)Nc1cccc(-c2cc(-c3ccc(F)cc3O)nc(NC(=O)c3ccco3)c2C#N)c1.Cl [Example 286, N-{3-cyano-4-[3-({[(1S,2R)-2-(dimethylamino)cyclohexyl]carbonyl}amino)phenyl]-6-(4-fluoro-2-hydroxyphenyl)pyridin-2-yl}-2-furamide hydrochloride] |
| 200 to 204 °C | ≤ 10 | CN(C)CCNC(=O)c1cccc(-c2cc(-c3ccc(F)cc3O)nc(NC(=O)c3ccco3)c2C#N)c1.Cl [Example 309, N-[3-cyano-4-[3-({[2-(dimethylamino)ethyl]amino}carbonyl)phenyl]-6-(4-fluoro-2-hydroxyphenyl)pyridin-2-yl]-2-furamide hydrochloride] |
| 262 to 263 °C | ≤ 10 | CCN(CC)CC(=O)Nc1cccc(-c2cc(-c3ccc(F)cc3O)nc(NC(=O)c3ccco3)c2C#N)c1.Cl [Example 315, N-[3-cyano-4-{3-[(N,N-diethylglycyl)amino]phenyl}-6-(4-fluoro-2-hydroxyphenyl)pyridin-2-yl]-2-furamide hydrochloride] |
| 216 to 220 °C | ≤ 10 | Cl.N#Cc1c(-c2cccc(NC(=O)[C@H]3CCCN3)c2)cc(-c2ccc(F)cc2O)nc1NC(=O)c1ccco1 [Example 291, N-{3-[3-cyano-6-(4-fluoro-2-hydroxyphenyl)-2-(2-furoylamino)pyridin-4-yl]phenyl}-D-prolinamide hydrochloride] |
| 180 to 182 °C | ≤ 10 | CCCC(CC(=O)Nc1cccc(-c2cc(-c3ccc(F)cc3O)nc(NC(=O)c3ccco3)c2C#N)c1)N(C)C.Cl (centres unmarked) [Example 285, N-[3-cyano-4-(3-{[3-(dimethylamino)hexanoyl]amino}phenyl)-6-(4-fluoro-2-hydroxyphenyl)pyridin-2-yl]-2-furamide hydrochloride] |
| ≥ 250 °C (dec.) | ≤ 10 | Cl.N#Cc1c(-c2cccc(NC(=O)[C@H]3CCCN3)c2)cc(-c2ccc(Cl)cc2O)nc1NC(=O)c1ccno1 [Example 295, N-(3-{6-(4-chloro-2-hydroxyphenyl)-3-cyano-2-[(isoxazol-5-ylcarbonyl)amino]pyridin-4-yl}phenyl)-D-prolinamide hydrochloride] |
| 233 to 234 °C | ≤ 10 | CC(CC(=O)Nc1cccc(-c2cc(-c3ccc(F)cc3O)nc(NC(=O)c3ccco3)c2C#N)c1)N(C)C.Cl (centres unmarked) [Example 338, N-[3-cyano-4-(3-{[3-(dimethylamino)butanoyl]amino}phenyl)-6-(4-fluoro-2-hydroxyphenyl)pyridin-2-yl]-2-furamide hydrochloride] |
| 208 to 213 °C | ≤ 10 | Cl.N#Cc1c(-c2cccc(NC(=O)[C@H]3CCCN3)c2)cc(-c2ccc(Cl)cc2O)nc1NC(=O)c1ccco1 [Example 296, N-{3-[6-(4-chloro-2-hydroxyphenyl)-3-cyano-2-(2-furoylamino)pyridin-4-yl]phenyl}-D-prolinamide hydrochloride] |

The remaining lines, values behind:

| Structure (SMILES) | melting point | IC50 [1] [µM] |
| --- | --- | --- |
| COc1c(C(=O)NCCN)cccc1-c1cc(-c2ccccc2O)nc(NC(=O)c2ccco2)c1C#N.Cl [Example 273, N-[4-(3-{[(2-aminoethyl)amino]carbonyl}-2-methoxyphenyl)-3-cyano-6-(2-hydroxyphenyl)pyridin-2-yl]-2-furamide hydrochloride] | 182 to 188 °C | ≤ 10 |
| Cl.N#Cc1c(-c2cccc(NC(=O)C3CCNC3)c2)cc(-c2ccc(Cl)cc2O)nc1NC(=O)c1ccco1 (centres unmarked) [Example 241, N-{3-[6-(4-chloro-2-hydroxyphenyl)-3-cyano-2-(2-furoylamino)pyridin-4-yl]phenyl}pyrrolidine-3-carboxamide hydrochloride] | 226 to 235 °C | ≤ 10 |
| Cl.N#Cc1c(-c2cccc(NC(=O)CCN)c2)cc(-c2ccc(Cl)cc2O)nc1NC(=O)c1ccco1 [Example 63, N-{4-[3-(β-alanylamino)phenyl]-6-(4-chloro-2-hydroxyphenyl)-3-cyanopyridin-2-yl}-2-furamide hydrochloride] | 206 to 212 °C | ≤ 10 |
| C[C@H](N)C(=O)Nc1cccc(-c2cc(-c3ccc(Cl)cc3O)nc(NC(=O)c3ccco3)c2C#N)c1.Cl [Example 240, N-[4-[3-(L-alanylamino)phenyl]-6-(4-chloro-2-hydroxyphenyl)-3-cyanopyridin-2-yl]-2-furamide hydrochloride] | 207 to 210 °C | ≤ 10 |
| Cl.N#Cc1c(-c2cccc(NC(=O)[C@@H]3CCCC[C@@H]3N)c2)cc(-c2ccc(F)cc2O)nc1NC(=O)c1ccco1 [Example 284, N-{4-[3-({[(1R,2S)-2-aminocyclohexyl]carbonyl}amino)phenyl]-3-cyano-6-(4-fluoro-2-hydroxyphenyl)pyridin-2-yl}-2-furamide hydrochloride] | 220 to 223 °C | ≤ 10 |
| Cl.N#Cc1c(-c2cccc(NC(=O)[C@H](N)Cc3ccccc3)c2)cc(-c2ccc(F)cc2O)nc1NC(=O)c1ccco1 [Example 263, N-{3-[3-cyano-6-(4-fluoro-2-hydroxyphenyl)-2-(2-furoylamino)pyridin-4-yl]phenyl}-D-phenylalaninamide hydrochloride] | 186 to 188 °C | ≤ 10 |
| Cl.N#Cc1c(-c2cccc(NC(=O)C(N)c3ccccc3)c2)cc(-c2ccc(F)cc2O)nc1NC(=O)c1ccco1 (centres unmarked) [Example 258, N-[4-(3-{[amino(phenyl)acetyl]amino}phenyl)-3-cyano-6-(4-fluoro-2-hydroxyphenyl)pyridin-2-yl]-2-furamide hydrochloride] | 224 to 225 °C | ≤ 10 |
| Cl.N#Cc1c(-c2cccc(C(=O)N[C@H]3CCCC[C@H]3N)c2)cc(-c2ccc(F)cc2O)nc1NC(=O)c1ccco1 (racemic) [Example 280, N-{4-[3-({[(1SR,2RS)-2-aminocyclohexyl]amino}carbonyl)phenyl]-3-cyano-6-(4-fluoro-2-hydroxyphenyl)pyridin-2-yl}-2-furamide hydrochloride] | 250 to 252 °C | ≤ 10 |
| Cl.N#Cc1c(-c2cccc(C(=O)NC3CCNC3)c2)cc(-c2ccc(F)cc2O)nc1NC(=O)c1ccco1 (centres unmarked) [Example 76, N-(3-cyano-6-(4-fluoro-2-hydroxyphenyl)-4-{3-[(pyrrolidin-3-ylamino)carbonyl]phenyl}pyridin-2-yl)-2-furamide hydrochloride] | 225 to 226 °C | ≤ 10 |
| COc1ccccc1C(=O)Nc1nc(-c2ccc(F)cc2O)cc(-c2cccc(NC(=O)CCN)c2)c1C#N.Cl [Example 247, N-[4-[3-(β-alanylamino)phenyl]-3-cyano-6-(4-fluoro-2-hydroxyphenyl)pyridin-2-yl]-2-methoxybenzamide hydrochloride] | 232 to 233 °C | ≤ 10 |
| Cl.N#Cc1c(-c2cccc(C(=O)NCCCn3ccnc3)c2)cc(-c2ccc(F)cc2O)nc1NC(=O)c1ccco1 [Example 67, N-{3-cyano-6-(4-fluoro-2-hydroxyphenyl)-4-[3-({[3-(1H-imidazole-1-yl)propyl]amino}carbonyl)phenyl]pyridin-2-yl}-2-furamide hydrochloride] | 173 to 174 °C | ≤ 10 |
